Assay results reported in patent US20260306639A1, “DEGRADER FOR DECOMPOSING CMET PROTEIN, AND PHARMACEUTICAL COMPOSITION COMPRISING SAME” (INNOCURE THERAPEUTICS, INC., priority 2022, published 2026).

Tested on: c-MET
Test: c-MET protein degradation (Simple Western), MKN-45 cells
Assay type: cell-based, human
Details: MKN-45 gastric cancer cells, c-MET overexpressing; 24 hours
Experimental: In order to assess the resolution of the compound of the present invention for c-MET expressed in cells, cells were dispensed in a 12-well plate at a concentration of 2×10^5 cells/well, and then gastric cancer cell lines were treated with samples for 24 hours and lung cancer cell lines were treated for 48 hours. Cell lysates were collected using a scraper on ice, centrifuged at 4° C. 15,000 rpm for 30 min to obtain a protein-containing supernatant. Protein expression was then measured using the Simple Western Automated Western Blot System Abby instrument using 3 μg of protein for each sample. SDS and heat-induced denaturation proteins were separated by molecular weight, attached to capillary, reacted with anti-c-MET or anti-GAPDH antibodies, which are primary antibodies, and then reacted with HRP-conjugated secondary antibodies, and analyzed the protein expression signal with compass software. Protein expression was normalized based on the expression value of GAPDH, and protein development in each sample was measured as a percentage (%) based on 100% of samples treated with 0.1% DMSO carriers, and DC50 (concentration of a compound where 50% protein inhibition is achieved) was calculated from the change in protein expression amount due to compound treatment.

Row | Structure (SMILES) | DC50 [nM]
1 | Cc1nn(C2CCC(=O)NC2=O)c(=O)c2cc(N3CCN(C(=O)CCN4CCC(COc5cnc(-c6cccc(Cn7nc(-c8cccc(C#N)c8)ccc7=O)c6)nc5)CC4)CC3)ccc12 (stereo not shown) [ICT-0001225] | < 100
2 | Cc1nn(C2CCC(=O)NC2=O)c(=O)c2cc(F)c(N3CCN(CC4CCN(C(=O)CN5CCC(COc6cnc(-c7cccc(Cn8nc(-c9cccc(C#N)c9)ccc8=O)c7)nc6)CC5)CC4)CC3)cc12 (stereo not shown) [ICT-0001204] | < 100
3 | Cc1nn(C2CCC(=O)NC2=O)c(=O)c2ccc(N3CCN(CC4CN(CC(=O)N5CCC(COc6cnc(-c7cccc(Cn8nc(-c9cccc(C#N)c9)ccc8=O)c7)nc6)CC5)C4)CC3)cc12 (stereo not shown) [ICT-0001253] | < 100
4 | N#Cc1cccc(-c2ccc(=O)n(Cc3cccc(-c4ncc(OCC5CCN(CC(=O)NCCCC#Cc6ccc7c(=O)n(C8CCC(=O)NC8=O)ncc7c6)CC5)cn4)c3)n2)c1 (stereo not shown) [ICT-0001205] | < 100
5 | Cn1cc(-c2cnc3c(nnn3C[C@@H]3CN(c4ncc(-c5ccc(CN6CCN(C(=O)CCOCCOCCNc7cccc8cnn(C9CCC(=O)NC9=O)c(=O)c78)CC6)cc5)cn4)CCO3)n2)cn1 (stereo partly shown) [ICT-0000940] | 100 to 1000
6 | Cc1nn(C2CCC(=O)NC2=O)c(=O)c2ccc(N3CCC(CN4CCN(C(=O)CN5CCC(COc6cnc(-c7cccc(Cn8nc(-c9cccc(C#N)c9)ccc8=O)c7)nc6)CC5)CC4)CC3)cc12 (stereo not shown) [ICT-0001236] | < 100
7 | N#Cc1cccc(-c2ccc(=O)n(Cc3cccc(-c4ncc(OCC5CCN(C(=O)CCCCCNc6ccc7c(=O)n(C8CCC(=O)NC8=O)ncc7c6)CC5)cn4)c3)n2)c1 (stereo not shown) [ICT-0000984, 3-(1-{[3-(5-{[1-(6-{[2-(2,6-dioxopiperidin-3-yl)-1-oxo-1,2-dihydroptalazine-6-yl]amino}hexanoyl)piperidine-4-il]methoxy}pyrimidine-2-yl)phenyl]methyl}-6-oxo-1,6-dihydropyridazine-3-yl)benzonitrile] | 100 to 1000
8 | Cc1nn(C2CCC(=O)NC2=O)c(=O)c2cc(N3CCN(C(=O)CCCCN4CCC(COc5cnc(-c6cccc(Cn7nc(-c8cccc(C#N)c8)ccc7=O)c6)nc5)CC4)CC3)ccc12 (stereo not shown) [ICT-0001251] | < 100
9 | Cc1nn(C2CCC(=O)NC2=O)c(=O)c2ccc(N3CCN(CCCCC(=O)N4CCC(COc5cnc(-c6cccc(Cn7nc(-c8cccc(C#N)c8)ccc7=O)c6)nc5)CC4)CC3)cc12 (stereo not shown) [ICT-0001176] | < 100
10 | Cn1cc(-c2cnc3c(nnn3C[C@@H]3CN(c4ncc(-c5ccc(CN6CCN(C(=O)CCCCCCNc7ccc8c(=O)n(C9CCC(=O)NC9=O)ncc8c7)CC6)cc5)cn4)CCO3)n2)cn1 (stereo partly drawn) [ICT-0000925, 3-(6-((7-(4-(4-(2-((S)-2-((5-(1-methyl-1H-pyrazole-4-yl)-1H-[1,2,3]triazolo[4,5-b]pyrazine-1-yl)methyl)morpholino)pyrimidine-5-yl)benzyl)piperazine-1-yl)7-oxoheptyl)amino)1-oxopthalazine-2(1H)-yl)piperidine-2,6-dione] | < 100
11 | Cc1nn(C2CCC(=O)NC2=O)c(=O)c2cc(N3CCN(C(=O)CN4CCC(COc5cnc(-c6cccc(Cn7nc(-c8cccc(C#N)c8)ccc7=O)c6)nc5)CC4)CC3)ccc12 (stereo not shown) [ICT-0001115, 3-(1-(3-(5-((1-(2-(4-(3-(2,6-dioxopiperidin-3-yl)-1-methyl-4-oxo-3,4-dihydropetalazine-6-yl)piperazine-1-yl)2-oxoethyl)piperidine-4-il)methoxy)pyrimidine-2-yl)benzyl)6-oxo-1,6-dihydropyridazine-3-yl)benzonitrile] | < 100
12 | N#Cc1cccc(-c2ccc(=O)n(Cc3cccc(-c4ncc(OCC5CCN(C(=O)COCCOCCNc6ccc7c(=O)n(C8CCC(=O)NC8=O)ncc7c6)CC5)cn4)c3)n2)c1 (stereo not shown) [ICT-0000986, 3-{1-[(3-{5-[(1-{2-[2-(2-{[2-(2,6-dioxopiperidin-3-yl)-1-oxo-1,2-dihydropthalazine-6-yl]amino}ethoxy)ethoxy]acetyl}piperidine-4-il)methoxy]pyrimidine-2-yl}phenyl)methyl]-6-oxo-1,6-dihydropyridazine-3-yl}benzonitrile] | < 100
13 | Cn1cc(-c2cnc3c(nnn3C[C@@H]3CN(c4ncc(-c5ccc(CN6CCN(C(=O)CCCCCNc7ccc8c(=O)n(C9CCC(=O)NC9=O)ncc8c7)CC6)cc5)cn4)CCO3)n2)cn1 (stereo partly drawn) [ICT-0000923, 3-{6-[(6-{4-[(4-{2-[(2S)-2-{[5-(1-methyl-1H-pyrazole-4-yl)-1H-[1,2,3]triazolo[4,5-b]pyrazine-1-yl]methyl}morpholine-4-day]pyrimidine-5-yl}phenyl)methyl]piperazine-1-yl}-6-oxohexyl)amino]-1-oxo-1,2-dihydrophthalazine-2-yl}piperidine-2,6-dione] | < 100
14 | Cc1nn(C2CCC(=O)NC2=O)c(=O)c2cc(N3CCC(C(=O)NCCCNC(=O)CN4CCC(COc5cnc(-c6cccc(Cn7nc(-c8cccc(C#N)c8)ccc7=O)c6)nc5)CC4)CC3)ccc12 (stereo not shown) [ICT-0001238] | > 1000
15 | N#Cc1cccc(-c2ccc(=O)n(Cc3cccc(-c4ncc(OCC5CCN(CCCC(=O)N6CCN(c7ccc8c(=O)n(C9CCC(=O)NC9=O)ncc8c7)CC6)CC5)cn4)c3)n2)c1 (stereo not shown) [ICT-0001226, 3-(1-(3-(5-((1-(4-(4-(2-(2,6-dioxopiperidine-3-yl)-1-oxo-1,2-dihydropetalazine-6-yl)piperazine-1-il)-4-oxobutyl)piperidine-4-il)methoxy)pyrimidine-2-yl)benzyl)-6-oxo-1,6-dihydropyridazine-3-yl)benzonitrile] | 100 to 1000
16 | Cn1cc(-c2cnc3c(nnn3C[C@@H]3CN(c4ncc(-c5ccc(CN6CCN(C(=O)CCCCNc7ccc8c(=O)n(C9CCC(=O)NC9=O)ncc8c7)CC6)cc5)cn4)CCO3)n2)cn1 (stereo partly drawn) [ICT-0000924, 3-(6-((5-(4-(4-(2-((S)-2-((5-(1-methyl-1H-pyrazole-4-yl)-1H-[1,2,3]triazolo[4,5-b]pyrazine-1-yl)methyl)morpholino)pyrimidine-5-yl)benzyl)piperazine-1-yl)5-oxopentyl)amino)1-oxopthalazine-2(1H)-yl)piperidine-2,6-dione] | < 100
17 | N#Cc1cccc(-c2ccc(=O)n(Cc3cccc(-c4ncc(OCC5CCN(CCC(=O)N6CCN(c7ccc8c(=O)n(C9CCC(=O)NC9=O)ncc8c7)CC6)CC5)cn4)c3)n2)c1 (stereo not shown) [ICT-0001223] | < 100
18 | Cc1nn(C2CCC(=O)NC2=O)c(=O)c2ccc(N3CCN(C[C@H]4CCN(CC(=O)N5CCC(COc6cnc(-c7cccc(Cn8nc(-c9cccc(C#N)c9)ccc8=O)c7)nc6)CC5)CO4)CC3)cc12 (stereo partly shown) [ICT-0001254] | 100 to 1000
19 | Cn1cc(-c2cnc3c(nnn3C[C@@H]3CN(c4ncc(-c5ccc(CN6CCN(C(=O)COCCOCCOCCOCCNc7ccc8c(=O)n(C9CCC(=O)NC9=O)ncc8c7)CC6)cc5)cn4)CCO3)n2)cn1 (stereo partly drawn) [ICT-0000939, 3-[6-(15-{4-[(4-{2-[(2S)-2-{[5-(1-methyl-1H-pyrazole-4-yl)-1H-[1,2,3]triazolo[4,5-b]pyrazine-1-yl]methyl}morpholine-4-yl]pyrimidine-5-yl}phenyl)methyl]piperazine-1-yl}-15-oxo-4,7,10,13-tetraoxa-1-azpentadecane-1-yl)-1-oxo-1,2-dihydroptalazine-2-yl]piperidine-2,6-dione] | > 1000
